Assay results: patent EP4813403A1, “USE OF GLP-1R/GIPR DOUBLE-TARGET AGONIST IN PREPARING ANIMAL DRUG” (Hangzhou Zhongmeihuadong Pharmaceutical Co., Ltd., priority 2023, dated 2025)

Key:
human GLP-1R = human GLP-1R (Homo sapiens, UniProt P43220); experiment: In vitro binding activity to human GLP-1 receptor ([125I]GLP-1 displacement, crude cell membranes); set-up: expressed in transfected cells; conditions: ratio of the Ki value of the endogenous ligand to the Ki value of the test compound; larger ratio = stronger binding
Protocol: (§1) 89 µL of membrane dissolved in binding buffer (50 mM Hepes, pH 7.4, 5 mM MgCl2 , 5 mM EDTA, 0.005% TWEEN, 0.005% HSA) was transferred to a 96-well test plate (5 µg/well). The compound was serially diluted in DMSO, and then, 1 µL of the diluted compound or 100% DMSO was added to the test plate containing the membrane solution. 10 µL of [^125I] […] The test plate was left at room temperature for 90 minutes. The membrane complexes were harvested into a GF/B plate pre-coated with 0.5% PEI by using a Cell Harvester, and washed for 3 times with 500 µL of pre-cooled elution buffer (50 mM Hepes, pH 7.4, 500 mM NaCl) at 4°C. After drying at 37°C for 2 hours, 50 µL of scintillation fluid was added to each well. The plate was read with a MicroBeta2 scintillation counter after sealing and settling for at least 1 hour so as to determine the membrane bound radioligand level.
The IC50 concentration was converted to Ki (Ki was the inhibition constant) using the Cheng-Prusoff equation.

db/db mice = experiment: Pharmacodynamic effects in db/db mice, single subcutaneous administration (blood glucose); assay type: in vivo; conditions: single s.c. 10 nmol/kg
Protocol: In this study, 8-9 week old male db/db mice were used. The db/db mice were placed in an individual ventilated cage (IVC) facility with a controlled temperature (20-26°C) and humidity (40-70%) and a controlled 12h:12 h light-dark cycle. The mice can receive food and water ad libitum. Blood was sampled at the tail tip, and the random base blood glucose was measured by a Roche blood glucose meter. The mice were randomly divided into groups according to the random initial fasting blood glucose and initial body weight (n=6/group), and each group had similar body weight and blood glucose.
After a single subcutaneous administration, the random base blood glucoses were recorded at the set time point (0 to 120 hours, the recording of the random base blood glucose was stopped until there was no difference between the random base blood glucose of the compound and that of the vehicle group), and the daily body weight and food intake were also recorded. The data results were statistically analyzed using GraphPad Prism8, and the statistical differences among the groups were analyzed following a T-Test. Significant differences were identified at p<0.05.
Hypoglycemic Duration: the longest time during which the random base blood glucose of the compound has a significant difference (p<0.05) vs. the vehicle group. Table 13. Hypoglycemic Duration of the Compounds

[1] = Pharmacokinetics following single administration in SD rats; conditions: male, Sprague-Dawley, rat, in vivo, sc
Protocol: The compound was administrated to male SD rats (230-268 g, n=3) at a dose of 50.0 nmol/kg (s.c.) or 25.0 nmol/kg (i.v.). […] 30.0 μL of thawed plasma sample was taken. 150 μL of acetonitrile solution (containing 5 ng·mL^-1 Verapamil , 50 ng·mL^-1 Glibenclamide, 200 ng·mL^-1 Tolbutamide and 200 ng·mL^-1 Diclofenac) were added to precipitate protein. The mixture was vortexed for 5 minutes, and centrifuged at 3700 rpm for 8 minutes. 70.0 μL of the supernatant was taken, into which 70.0 μL of 0.5% aqueous formic acid solution was added. The mixture was vortexed for 5 minutes. 15 μL of the mixture solution was sampled and injected into the LC-MS/MS to determine the drug concentration in plasma. 20.0 μL of thawed plasma sample was taken. 60 μL of acetonitrile solution (containing 5 ng·mL^-1 Verapamil, 50 ng·mL^-1 Glibenclamide, 200 ng·mL^-1 Tolbutamide and 200 ng·mL^-1 Diclofenac) were added to precipitate protein. […] The mixture was vortexed for 10 minutes. 10.0 μL of the mixture solution was sampled and injected into the LC-MS/MS to determine the drug concentration in plasma. 30.0 μL of thawed plasma sample was taken. 150 μL of acetonitrile solution (containing 5 ng·mL^-1 Verapamil, 50 ng·mL^-1 Glibenclamide, 200 ng·mL^-1 Tolbutamide and 200 ng·mL^-1 Diclofenac) were added to precipitate protein. The mixture was vortexed for 5 minutes, and centrifuged at 3700 rpm for 8 minutes. 70.0 μL of the supernatant was taken, into which 70.0 μL of 0.5% aqueous formic acid solution was added. The mixture was vortexed for 5 minutes. 10.0 μL of the mixture solution was sampled and injected into the LC-MS/MS to determine the drug concentration in plasma. […] Table 5 Pharmacokinetic Parameters after Subcutaneous Injection of Different Polypeptide Compounds to Rats

human GIP Receptor = biological target: T1, human GIP Receptor (Homo sapiens, UniProt P48546); experiment: In vitro binding activity to human GIP receptor ([125I]GIP displacement, crude cell membranes); conditions: ratio of the Ki value of the endogenous ligand to the Ki value of the test compound; larger ratio = stronger binding
T1 construct: expressed in transfected cells
T1 sequence (P48546 22-466): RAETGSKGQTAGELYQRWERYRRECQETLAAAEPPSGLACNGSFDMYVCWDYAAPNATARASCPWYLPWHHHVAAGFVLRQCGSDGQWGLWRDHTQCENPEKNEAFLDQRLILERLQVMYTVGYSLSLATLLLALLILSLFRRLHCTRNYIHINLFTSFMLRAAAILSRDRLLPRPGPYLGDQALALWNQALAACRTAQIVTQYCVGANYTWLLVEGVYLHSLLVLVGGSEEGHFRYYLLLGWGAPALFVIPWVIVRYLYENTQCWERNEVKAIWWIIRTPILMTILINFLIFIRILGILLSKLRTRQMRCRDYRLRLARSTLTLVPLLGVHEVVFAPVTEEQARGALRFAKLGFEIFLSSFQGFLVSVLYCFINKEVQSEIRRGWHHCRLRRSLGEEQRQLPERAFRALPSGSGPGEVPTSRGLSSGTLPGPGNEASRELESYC
Protocol: as §1
hGIP and the compound of the present invention were dissolved in DMSO and stored at -80°C. 98 µL of membrane dissolved in binding buffer (50 mM HEPES pH 7.4, 5 mM MgCl2, 1 mM CaCl2, 0.1% BSA, 0.005% Tween-20) was transferred to a 96-well test plate (15 µg/well). The compound was serially diluted in DMSO, and then, 2 µL of the diluted compounds or 100% DMSO was added to the test plate containing the membrane solution. […] The test plate was left at room temperature for 90 minutes. The membrane complexes were harvested into a GF/B plate pre-coated with 0.5% PEI by using a Cell Harvester, and washed for 3 times with 500 µL of pre-cooled elution buffer (50 mM Tris-HCl pH 7.4, 125 mM NaCl) at 4°C. After drying at 37°C for 2 hours, 50 µL of scintillation fluid was added to each well. The plate was read with a MicroBeta2 scintillation counter after sealing and settling for at least 1 hour so as to determine the membrane bound radioligand level.
The IC50 concentration was converted to Ki (Ki was the inhibition constant) using the Cheng-Prusoff equation. Table 1. Receptor Binding Affinity, Ki Ratio

[2] = Group 1, longest time with p<0.05 vs. vehicle
[3] = Group 2, longest time with p<0.05 vs. vehicle

Sequence of human GLP-1R (P43220 24-463): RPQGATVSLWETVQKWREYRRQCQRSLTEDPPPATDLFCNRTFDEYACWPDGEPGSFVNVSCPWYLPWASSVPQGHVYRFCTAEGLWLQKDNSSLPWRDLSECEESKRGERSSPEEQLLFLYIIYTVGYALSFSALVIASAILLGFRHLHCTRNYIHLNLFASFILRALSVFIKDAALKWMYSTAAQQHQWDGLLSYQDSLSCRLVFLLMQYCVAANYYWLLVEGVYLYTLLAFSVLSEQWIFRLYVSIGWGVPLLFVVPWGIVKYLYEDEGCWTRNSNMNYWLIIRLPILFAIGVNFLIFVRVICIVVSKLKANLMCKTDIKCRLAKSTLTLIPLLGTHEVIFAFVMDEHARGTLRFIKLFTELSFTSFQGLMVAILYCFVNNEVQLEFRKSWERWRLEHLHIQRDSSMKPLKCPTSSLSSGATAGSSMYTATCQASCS

| Compound | GLP-1R Ki ratio (human GLP-1R) | Hypoglycemic Duration (db/db mice; [2]) | Tmax [1] | half-life [1] | hypoglycemic duration longer than that of Tirzepatide (db/db mice) | inhibition of the blood glucose AUC, times of that of P001 (db/db mice) | Hypoglycemic Duration (db/db mice; [3]) | GIPR Ki ratio (human GIP Receptor) |
| --- | --- | --- | --- | --- | --- | --- | --- | --- |
| CC[C@H](C)[C@H](NC(=O)C(C)(C)NC(=O)[C@H](Cc1ccc(O)cc1)NC(=O)[C@H](CC(=O)O)NC(=O)[C@H](CO)NC(=O)[C@@H](NC(=O)C(C)(Cc1ccccc1)NC(=O)[C@@H](NC(=O)CNC(=O)[C@H](CCC(=O)O)NC(=O)C(C)(C)NC(=O)[C@@H](N)Cc1ccc(O)cc1)[C@@H](C)O)[C@@H](C)O)C(=O)NC(C)(C)C(=O)N[C@@H](CC(C)C)C(=O)N[C@@H](CC(=O)O)C(=O)N[C@@H](CCCCN)C(=O)N[C@@H](CCC(N)=O)C(=O)N[C@@H](C)C(=O)N[C@@H](CCC(N)=O)C(=O)N[C@@H](C)C(=O)N[C@@H](CCC(=O)O)C(=O)N[C@@H](Cc1ccccc1)C(=O)N[C@H](C(=O)N[C@@H](CCCCNC(=O)COCCOCCNC(=O)COCCOCCNC(=O)CC[C@H](NC(=O)CCCCCCCCCCCCCCCCC(=O)O)C(=O)O)C(=O)N[C@@H](Cc1c[nH]c2ccccc12)C(=O)N[C@@H](CC(C)C)C(=O)N[C@@H](CC(C)C)C(=O)N[C@@H](CCCCN)C(=O)NCC(=O)NCC(=O)N1CCC[C@H]1C(=O)N[C@@H](CO)C(=O)N[C@@H](CO)C(=O)NCC(=O)N[C@@H](C)C(=O)N1CCC[C@H]1C(=O)N1CCC[C@H]1C(=O)N1CCC[C@H]1C(=O)N[C@@H](CO)C(=O)N[C@@H](CCCCN)C(N)=O)C(C)C (stereo partly drawn) [Compound P007] | 0.47 | 56 h | 7.33 ± 1.15 h | 15 ± 2.89 h | – | – | – | – |
| CC[C@H](C)[C@H](NC(=O)C(C)(C)NC(=O)[C@H](Cc1ccc(O)cc1)NC(=O)[C@H](CC(=O)O)NC(=O)[C@H](CO)NC(=O)[C@@H](NC(=O)C(C)(Cc1ccccc1)NC(=O)[C@@H](NC(=O)CNC(=O)[C@H](CCC(=O)O)NC(=O)C(C)(C)NC(=O)[C@@H](N)Cc1ccc(O)cc1)[C@@H](C)O)[C@@H](C)O)C(=O)NC(C)(C)C(=O)N[C@@H](CC(C)C)C(=O)N[C@@H](CC(=O)O)C(=O)N[C@@H](CCCCN)C(=O)N[C@@H](CCC(N)=O)C(=O)N[C@@H](C)C(=O)N[C@@H](CCC(N)=O)C(=O)N[C@@H](C)C(=O)N[C@@H](CCC(=O)O)C(=O)N[C@@H](Cc1ccccc1)C(=O)N[C@H](C(=O)N[C@@H](CCCCN)C(=O)N[C@@H](Cc1c[nH]c2ccccc12)C(=O)N[C@@H](CC(C)C)C(=O)N[C@@H](CC(C)C)C(=O)N[C@@H](CCCCNC(=O)COCCOCCNC(=O)COCCOCCNC(=O)CC[C@H](NC(=O)CCCCCCCCCCCCCCCCC(=O)O)C(=O)O)C(=O)NCC(=O)NCC(=O)N1CCC[C@H]1C(=O)N[C@@H](CO)C(=O)N[C@@H](CO)C(=O)NCC(=O)N[C@@H](C)C(=O)N1CCC[C@H]1C(=O)N1CCC[C@H]1C(=O)N1CCC[C@H]1C(=O)N[C@@H](CO)C(=O)N[C@@H](CCCCN)C(N)=O)C(C)C (stereo partly drawn) [Compound P008] | – | 72 h | 13.3 ± 9.24 h | 18.7 ± 4.82 h | more than 16 hours | 2.3 times | – | – |
| CC[C@H](C)[C@H](NC(=O)C(C)(C)NC(=O)[C@H](Cc1ccc(O)cc1)NC(=O)[C@H](CC(=O)O)NC(=O)[C@H](CO)NC(=O)[C@@H](NC(=O)C(C)(Cc1ccccc1)NC(=O)[C@@H](NC(=O)CNC(=O)[C@H](CCC(=O)O)NC(=O)C(C)(C)NC(=O)[C@@H](N)Cc1ccc(O)cc1)[C@@H](C)O)[C@@H](C)O)C(=O)NC(C)(C)C(=O)N[C@@H](CC(C)C)C(=O)N[C@@H](CC(=O)O)C(=O)N[C@@H](CCCCN)C(=O)N[C@@H](CCC(N)=O)C(=O)N[C@@H](C)C(=O)N[C@@H](CCC(N)=O)C(=O)N[C@@H](C)C(=O)N[C@@H](CCC(=O)O)C(=O)N[C@@H](Cc1ccccc1)C(=O)N[C@H](C(=O)N[C@@H](CCCCNC(=O)COCCOCCNC(=O)COCCOCCNC(=O)CC[C@H](NC(=O)CCCCCCCCCCCCCCCCCCC(=O)O)C(=O)O)C(=O)N[C@@H](Cc1c[nH]c2ccccc12)C(=O)N[C@@H](CC(C)C)C(=O)N[C@@H](CC(C)C)C(=O)N[C@@H](CCCCN)C(=O)NCC(=O)NCC(=O)N1CCC[C@H]1C(=O)N[C@@H](CO)C(=O)N[C@@H](CO)C(=O)NCC(=O)N[C@@H](C)C(=O)N1CCC[C@H]1C(=O)N1CCC[C@H]1C(=O)N1CCC[C@H]1C(=O)N[C@@H](CO)C(=O)N[C@@H](CCCCN)C(N)=O)C(C)C (stereo partly drawn) [Compound P013] | 0.28 | – | 24 h | 15 ± 0.737 h | – | – | 72 h | 0.14 |
| CC[C@H](C)[C@H](NC(=O)C(C)(C)NC(=O)[C@H](Cc1ccc(O)cc1)NC(=O)[C@H](CC(=O)O)NC(=O)[C@H](CO)NC(=O)[C@@H](NC(=O)C(C)(Cc1ccccc1)NC(=O)[C@@H](NC(=O)CNC(=O)[C@H](CCC(=O)O)NC(=O)C(C)(C)NC(=O)[C@@H](N)Cc1ccc(O)cc1)[C@@H](C)O)[C@@H](C)O)C(=O)NC(C)(C)C(=O)N[C@@H](CC(C)C)C(=O)N[C@@H](CC(=O)O)C(=O)N[C@@H](CCCCN)C(=O)N[C@@H](CCC(N)=O)C(=O)N[C@@H](C)C(=O)N[C@@H](CCC(N)=O)C(=O)N[C@@H](C)C(=O)N[C@@H](CCC(=O)O)C(=O)N[C@@H](Cc1ccccc1)C(=O)N[C@H](C(=O)N[C@@H](CCCCNC(=O)COCCOCCNC(=O)COCCOCCNC(=O)CC[C@H](NC(=O)CC[C@H](NC(=O)CC[C@H](NC(=O)CCCCCCCCCCCCCCCCC(=O)O)C(=O)O)C(=O)O)C(=O)O)C(=O)N[C@@H](Cc1c[nH]c2ccccc12)C(=O)N[C@@H](CC(C)C)C(=O)N[C@@H](CC(C)C)C(=O)N[C@@H](CCCCN)C(=O)NCC(=O)NCC(=O)N1CCC[C@H]1C(=O)N[C@@H](CO)C(=O)N[C@@H](CO)C(=O)NCC(=O)N[C@@H](C)C(=O)N1CCC[C@H]1C(=O)N1CCC[C@H]1C(=O)N1CCC[C@H]1C(=O)N[C@@H](CO)C(=O)N[C@@H](CCCCN)C(N)=O)C(C)C (stereo partly drawn) [Compound P015] | 0.17 | – | 24 h | 16.1 ± 1.21 h | – | – | 32 h | – |
